Data set [1] deals with Histone deacetylase 3/Nuclear receptor corepressor 2 (HDAC3/NCoR2) (Homo sapiens, UniProt O15379). Description: Inhibition of C-terminal His tagged human recombinant HDAC3 (1 to 428 end residues)/N-terminal GST-tagged human NcoR2 expressed in Sf9 insect cells using Z-Lys(Ac)-AMC as substrate preincubated for 60 mins followed by substrate addition and measured after 90 mins by fluorescence based microplate reader analysis.

The nature of data set [2]: Antiproliferative activity against human MM1.S cells assessed as cell viability at 50 uM incubated for 72 hrs by CellTiter-Glo assay relative to control. The data set is classed as toxicity, cell-based. Conditions: read-out: Activity. Background: Cellular ATP, detected with luciferase, serves as a proxy for viable cell number.
The next data set deals with MM1.S. Description: Induction of degradation of HDAC6 in human MM1.S cells at 0.5 uM incubated for 24 hrs by immunoblot analysis relative to control. The data set is classed as cell-based.
A short description of data set [3]: Antiproliferative activity against human MM1.S cells assessed as cell viability incubated for 72 hrs by CellTiter-Glo assay. Type of data set: toxicity, cell-based.

The values below come from ChEMBL document CHEMBL6103670, “Development of Ethyl-Hydrazide-Based Selective Histone Deacetylase 6 (HDAC6) PROTACs” (ACS Med Chem Lett, 2025).

The structures appear in SMILES notation.

The term IC50 denotes the concentration at which inhibition is half-maximal.

Histone deacetylase 3/Nuclear receptor corepressor 2 (HDAC3/NCoR2), sequence (O15379 whole entry): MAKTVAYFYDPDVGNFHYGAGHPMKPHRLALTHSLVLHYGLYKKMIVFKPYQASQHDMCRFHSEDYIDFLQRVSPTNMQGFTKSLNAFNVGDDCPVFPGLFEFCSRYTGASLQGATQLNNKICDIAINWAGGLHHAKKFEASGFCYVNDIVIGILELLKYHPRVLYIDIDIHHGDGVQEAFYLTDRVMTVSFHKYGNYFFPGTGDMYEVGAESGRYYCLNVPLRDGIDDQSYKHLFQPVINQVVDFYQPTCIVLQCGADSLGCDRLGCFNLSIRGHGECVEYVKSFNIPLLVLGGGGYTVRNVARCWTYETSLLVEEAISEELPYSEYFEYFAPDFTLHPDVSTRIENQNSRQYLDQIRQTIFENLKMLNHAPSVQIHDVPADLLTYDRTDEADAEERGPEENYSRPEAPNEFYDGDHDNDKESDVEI
Histone deacetylase 3/Nuclear receptor corepressor 2 (HDAC3/NCoR2), sequence (Q9Y618 whole entry, further chain): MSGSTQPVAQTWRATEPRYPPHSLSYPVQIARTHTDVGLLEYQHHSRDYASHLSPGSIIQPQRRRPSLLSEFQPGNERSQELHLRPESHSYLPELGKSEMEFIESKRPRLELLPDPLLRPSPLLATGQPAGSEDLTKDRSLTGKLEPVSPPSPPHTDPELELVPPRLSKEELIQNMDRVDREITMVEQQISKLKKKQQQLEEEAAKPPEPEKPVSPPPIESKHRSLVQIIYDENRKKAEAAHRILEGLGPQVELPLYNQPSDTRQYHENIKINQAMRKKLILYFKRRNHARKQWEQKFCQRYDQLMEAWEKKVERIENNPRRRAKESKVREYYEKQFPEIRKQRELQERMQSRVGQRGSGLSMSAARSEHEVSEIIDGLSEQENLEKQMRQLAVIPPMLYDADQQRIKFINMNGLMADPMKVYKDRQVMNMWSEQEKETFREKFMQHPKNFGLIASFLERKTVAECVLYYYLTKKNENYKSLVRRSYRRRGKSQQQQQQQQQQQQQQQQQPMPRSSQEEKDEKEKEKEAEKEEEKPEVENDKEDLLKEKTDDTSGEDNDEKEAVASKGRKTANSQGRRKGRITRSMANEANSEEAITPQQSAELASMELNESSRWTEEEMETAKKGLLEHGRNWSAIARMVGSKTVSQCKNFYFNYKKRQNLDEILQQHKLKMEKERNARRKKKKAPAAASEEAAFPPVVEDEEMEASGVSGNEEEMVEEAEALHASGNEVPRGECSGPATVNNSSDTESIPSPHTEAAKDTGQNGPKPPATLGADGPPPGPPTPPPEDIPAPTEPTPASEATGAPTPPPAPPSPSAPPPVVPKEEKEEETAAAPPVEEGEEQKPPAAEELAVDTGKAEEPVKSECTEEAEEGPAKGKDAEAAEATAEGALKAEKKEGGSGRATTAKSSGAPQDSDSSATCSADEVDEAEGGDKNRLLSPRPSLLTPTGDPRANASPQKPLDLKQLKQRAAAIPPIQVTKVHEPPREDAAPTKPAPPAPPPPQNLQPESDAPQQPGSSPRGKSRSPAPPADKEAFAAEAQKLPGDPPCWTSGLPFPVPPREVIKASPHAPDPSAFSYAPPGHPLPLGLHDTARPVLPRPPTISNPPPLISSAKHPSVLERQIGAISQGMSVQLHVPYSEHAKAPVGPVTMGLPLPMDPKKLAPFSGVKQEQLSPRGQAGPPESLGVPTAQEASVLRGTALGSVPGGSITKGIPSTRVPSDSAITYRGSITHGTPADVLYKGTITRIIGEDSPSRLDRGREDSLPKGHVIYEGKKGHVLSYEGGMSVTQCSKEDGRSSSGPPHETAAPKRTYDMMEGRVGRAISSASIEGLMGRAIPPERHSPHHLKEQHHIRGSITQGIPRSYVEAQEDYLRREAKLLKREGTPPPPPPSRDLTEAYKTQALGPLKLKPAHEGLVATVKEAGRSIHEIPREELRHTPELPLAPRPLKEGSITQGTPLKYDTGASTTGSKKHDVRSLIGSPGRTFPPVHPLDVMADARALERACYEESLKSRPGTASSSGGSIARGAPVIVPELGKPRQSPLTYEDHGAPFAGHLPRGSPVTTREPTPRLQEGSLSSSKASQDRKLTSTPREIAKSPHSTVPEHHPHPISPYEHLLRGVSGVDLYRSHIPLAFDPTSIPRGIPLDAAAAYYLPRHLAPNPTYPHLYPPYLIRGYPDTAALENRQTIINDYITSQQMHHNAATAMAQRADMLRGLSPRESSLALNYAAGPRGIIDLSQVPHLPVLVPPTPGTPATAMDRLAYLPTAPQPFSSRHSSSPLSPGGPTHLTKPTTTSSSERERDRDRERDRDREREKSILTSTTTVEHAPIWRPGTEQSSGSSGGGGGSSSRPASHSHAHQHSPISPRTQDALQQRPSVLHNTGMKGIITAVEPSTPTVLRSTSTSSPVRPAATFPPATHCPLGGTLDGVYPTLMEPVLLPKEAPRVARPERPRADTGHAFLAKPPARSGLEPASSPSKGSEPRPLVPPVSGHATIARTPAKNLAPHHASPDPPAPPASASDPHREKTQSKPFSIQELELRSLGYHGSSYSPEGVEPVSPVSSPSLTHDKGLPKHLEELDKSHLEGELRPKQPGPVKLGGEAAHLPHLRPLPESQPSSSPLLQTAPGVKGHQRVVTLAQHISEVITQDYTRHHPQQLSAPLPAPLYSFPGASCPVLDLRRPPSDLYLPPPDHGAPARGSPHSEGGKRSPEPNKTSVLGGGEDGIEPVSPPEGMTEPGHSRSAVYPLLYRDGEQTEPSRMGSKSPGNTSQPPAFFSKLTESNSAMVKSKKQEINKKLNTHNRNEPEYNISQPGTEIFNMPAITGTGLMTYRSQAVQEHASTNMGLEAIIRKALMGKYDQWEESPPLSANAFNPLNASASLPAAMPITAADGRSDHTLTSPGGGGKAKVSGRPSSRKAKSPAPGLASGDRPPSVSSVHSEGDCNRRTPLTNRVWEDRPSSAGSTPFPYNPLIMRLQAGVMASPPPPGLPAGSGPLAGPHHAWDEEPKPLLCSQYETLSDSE

Consider `CCNNC(=O)c1ccc(CNC(=O)c2ccc(OCc3cn(CCCCCC(=O)N[C@H](C(=O)N4C[C@H](O)C[C@H]4C(=O)NCc4ccc(-c5scnc5C)cc4)C(C)(C)C)nn3)cc2)cc1`, for which, in data set [1], the IC50 amounted to 417 nM. In addition, in data set [2], the viability at 72 h, 50 µM is above 50%.
On to `O=C(CCCCCCNC(=O)c1ccc(NC(=O)CCCCCCCNC(=O)COc2cccc3c2C(=O)N(C2CCC(=O)NC2=O)C3=O)cc1)NO` (configuration not stated), for which the IC50 in data set [1] came to 164 nM. This compound showed an Activity with MM1.S of 94.5%. Also, the viability at 72 h, 50 µM in data set [2] is above 50%.
`CCNNC(=O)c1ccc(CNC(=O)c2ccc(NC(=O)COCCOCCNc3cc4c(cc3F)C(=O)N(C3CCC(=O)NC3=O)C4=O)cc2)cc1` (configuration not stated): in data set [1], the IC50 is 378 nM. The viability at 72 h, 50 µM in data set [2] was above 50%.
In the same order, the values of `CCNNC(=O)c1ccc(CNC(=O)c2ccc(OCc3cn(CCCCCCNc4cc5c(cc4F)C(=O)N(C4CCC(=O)NC4=O)C5=O)nn3)cc2)cc1` (configuration not stated) are 611 nM and above 50%.
The matching figures for `CCNNC(=O)c1ccc(CNC(=O)c2ccc(OCc3cn(CCOCCC(=O)N[C@H](C(=O)N4C[C@H](O)C[C@H]4C(=O)NCc4ccc(-c5scnc5C)cc4)C(C)(C)C)nn3)cc2)cc1`: 244 nM and above 50%.
The matching figures for `CCNNC(=O)c1ccc(CNC(=O)c2ccc(NC(=O)COCCOCC(=O)N[C@H](C(=O)N3C[C@H](O)C[C@H]3C(=O)NCc3ccc(-c4scnc4C)cc3)C(C)(C)C)cc2)cc1`: 729 nM and above 50%.
Consider `CCNNC(=O)c1ccc(CNC(=O)c2ccc(OCc3cn(CCOCCNc4cc5c(cc4F)C(=O)N(C4CCC(=O)NC4=O)C5=O)nn3)cc2)cc1` (configuration not stated), for which the IC50 in data set [1] is 332 nM. Besides, the half-maximal inhibitory concentration (IC50) at 72 h in data set [3] is 24.9 µM.
For the compound `CCNNC(=O)c1ccc(CNC(=O)c2ccc(NC(=O)CCCCCCC(=O)N[C@H](C(=O)N3C[C@H](O)C[C@H]3C(=O)NCc3ccc(-c4scnc4C)cc3)C(C)(C)C)cc2)cc1`, the half-maximal inhibitory concentration (IC50) in data set [1] was found to be 126 nM. The viability at 72 h, 50 µM in data set [2] was above 50%.
The matching figures for `CCNNC(=O)c1ccc(CNC(=O)c2ccc(OCc3cn(CCCCCCNc4cc5c(cc4F)C(=O)N(C4CCC(=O)N(C)C4=O)C5=O)nn3)cc2)cc1` (configuration not stated): 537 nM and above 50%.
Turning to `O=C(CCCCCCC(=O)Nc1ccccc1)NO` [VORINOSTAT], the concentration for half-maximal inhibition (IC50) at 72 h in data set [3] turned out to be 0.8 µM.
With `CCNNC(=O)c1ccc(CNC(=O)c2ccc(NC(=O)CCCCCCCNc3cc4c(cc3F)C(=O)N(C3CCC(=O)NC3=O)C4=O)cc2)cc1` (configuration not stated), in data set [1], the IC50 is 238 nM. Besides, in data set [3], the IC50 at 72 h worked out at 18.4 µM.
